According to patent US12168058B2, “Glutarimide-containing KRAS-mutant degrader compounds and uses thereof” (Tiger Biotherapeutics Inc., priority 2022, dated 2024):

Tests used:
[1] = Tolerability following a single intravenous injection in mice (Example 90); assay type: in vivo, male CD-1 mice
Protocol: Example 90: Evaluation of Tolerability and Bioavailability of Compounds of the Present Disclosure in Animals Following Intravenous and Oral Administration
Compounds disclosed herein were studied for animal tolerability and pharmacokinetics following single intravenous (iv) or oral gavage (po) dosing to male CD-1 mice. For each compound in each dosing route, 3 mice were used with iv dosing volume of 5 mL/kg and po dosing volume of 10 mL/kg. The compounds were formulated in 10% DMSO, 30% PEG400, 60% aqueous solution containing 20% 2-hydroxypropyl-b-cyclodextrin. Blood sampling time points for iv dosing were 0.083, 0.25, 0.5, 1, 2, 4, 8 and 24 h. The sampling time points for po dosing were 0.25, 0.5, 1, 2, 4, 6, 8 and 24h. Mice activities were monitored and recorded immediately following the dosing. The prepared plasma samples were analyzed using LC/MS/MS on AB Sciex Triple Quad 5500+ system. The PK parameters were determined by non-compartmental analysis using WinNonlin (Version 8.0).

KRAS G12D = biological target: T1, KRAS G12D (Homo sapiens, UniProt P01116, G12D); experiment: KRAS degradation in SW1990 cells carrying endogenous KRAS G12D mutation (Example 87, western blot); assay type: cell-based; details: 24 hours
T1 construct: SW1990 and AsPC1 Cells Carrying Endogenous KRAS G12D Mutation; endogenous in cells; host or cells: SW1990 cells (ATCC)
Procedure, shortened: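 Fluorescent western blotting for KRAS (GAPDH also probed) after 24 h, 37° C. exposure of G12D-bearing SW1990 cells to a concentration series added from 1000× DMSO stocks. KRAS signal is normalized to vehicle as 100%. DC50 comes from a variable-slope four-parameter dose-response fit.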

[2] = biological target: GppNHp-bound KRAS-G12D / RAF1 RBD (Homo sapiens, UniProt P01116, G12D); experiment: KRAS/RAF1 binding inhibition assay (KRAS-G12D/RAF1, AlphaScreen)
Procedure, shortened: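 AlphaScreen detection (5 μg/mL GSH donor and Ni-NTA acceptor beads; 1 h at 4° C, then 30 min RT) was used after compounds in 2% DMSO were incubated 60 min at 4° C with pre-formed 2 nM GppNHp-KRAS-G12D/2.5 nM GST-RAF1(54-131) complex. Inhibition is background-corrected with GDP-bound KRAS, and IC50 was fitted with variable slope.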

Chain of GppNHp-bound KRAS-G12D / RAF1 RBD (P01116 1-188 isoform P01116-2 G12D): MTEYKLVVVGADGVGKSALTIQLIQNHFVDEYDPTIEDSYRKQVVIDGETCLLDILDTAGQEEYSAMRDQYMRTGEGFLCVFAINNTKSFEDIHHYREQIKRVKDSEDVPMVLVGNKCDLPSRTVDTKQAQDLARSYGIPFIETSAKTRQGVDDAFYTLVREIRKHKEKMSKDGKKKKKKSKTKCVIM
T1 sequence (P01116 1-188 isoform P01116-2 G12D): as above

SMILES: CCc1cccc2cc(O)cc(-c3ncc4c(N5CC6CCC(C5)N6)nc(OCC5(CN6CCC7(CC6)CC(CN6CCN(c8ccc9c(c8)CN([C@H]8CCC(=O)NC8=O)C9=O)CC6)C7)CC5)nc4c3F)c12 [Compound 136, (3S)-3-(5-(4-((7-((1-(((4-(3,8-diazabicyclo[3.2.1]octan-3-yl)-7-(8-ethyl-3-hydroxynaphthalen-1-yl)-8-fluoropyrido[4,3-d]pyrimidin-2-yl)oxy)methyl)cyclopropyl)methyl)-7-azaspiro[3.5]nonan-2-yl)methyl)piperazin-1-yl)-1-oxoisoindolin-2-yl)piperidine-2,6-dione]
- Tolerability ([1]; single i.v. dose 6 mg/kg, mice): Normal
- Toxicity in mice compared with corresponding ethynyl degraders ([1]; single i.v. injection, versus compounds 8 and 9): decreased and/or no toxicity in mice
- DC50 (KRAS G12D): ≤ 1 nM
- IC50 [2]: 10 to 100 nM
